{
  "source": "patent US20260137692A1",
  "about": "“METHODS AND COMPOSITIONS FOR TREATING AND MANAGING ALZHEIMER'S DISEASE” (PHARMATROPHIX, INC., priority 2024, published 2026)",
  "system": "patients with mild to moderate Alzheimer's Disease",
  "experiment": "Phase IIa trial: ADAS-Cog",
  "type": "in vivo, human",
  "settings": "ITT",
  "protocol": "Exploratory outcome evaluations involved the assessment of cognitive and clinical function (Table 4). […] Items from the Neurological Testing Battery (NTB), together with the ADAS-Cog 13, Spatial Navigation Test (AMUNET) were performed at Baseline, Week 12 and Week 26 (Visits 2, 4 and 5). While the MMSE was used primarily as a screening and baseline disease staging tool, its repeated administration at Week 26 provided an additional exploratory cognitive outcome measure. The Geriatric Depression Scale (GDS) was assessed at each Visit (Screening, Baseline, Week 4, 12, 26: Visits 1-5) and the Clinical Global Impression test (CGI) with Severity was assessed at Screening (Visit 1) and then the Improvement was subsequently assessed at Weeks 12 and 26 (Visits 4 and 5). For each test, whether categorical or numeric, all raw scores were considered interval in nature. The change from Screening (Week −8) or Baseline (Week 0) was therefore be derived for each patient. Actual values at each Visit and Changes from Screening/Baseline were summarized.\nAlzheimer's Disease Assessment Scale-13 items (total score=85) is used as a parameter for exploratory outcome analysis. ADAS-cog is a psychometric instrument designed to evaluate the severity of cognitive and non-cognitive behavioral dysfunctions characteristic of people with AD. The cognitive portion assesses memory, language and praxis functions. Most items are rated on a scale of 0 to 5, where 0 indicates no impairment and 1 to 5 indicates very mild (1), mild (2), moderate (3), moderately severe (4) or severe impairment (5) respectively. Other items are rated on the presence or absence of a characteristic number of errors or severity of errors. The total scores from the ADAS-cog sub-scales range from 0 (no impairment) to 85 (errors in all sub-tests).\nA positive (i.e., increasing) change of the score indicates cognitive worsening.\nADAS-Cog was assessed at Visits 2, 4 and 5, as well as at the early discontinuation Visit, if applicable.",
  "data": [
    {"smiles": "CC[C@H](C)[C@H](N)C(=O)NCCN1CCOCC1", "note": "[LM11A-31-BHS, Tris[(2S,3S)-2-amino-3-methyl-N-(2-morpholinoethyl)pentanamide]tetra(monohydrogensulfate), monosulfate]", "values": [
      {"measurement": "progression compared to placebo in the LS mean ADAS-cog-13 score, increased by", "setting": "200 mg group, 26-week treatment period, not statistically significant", "result": 7.1, "unit": "%"},
      {"measurement": "ADAS-cog-6 score progression compared to placebo, increased by", "setting": "200 mg group, 26 weeks", "result": 7.1, "unit": "%"},
      {"measurement": "progression compared to placebo of the LS mean ADAS-cog-11 score, decreased by", "setting": "200 mg group, 26 weeks", "result": 9.8, "unit": "%"},
      {"measurement": "progression compared to placebo in the LS mean ADAS-cog-13 score, decreased by", "setting": "400 mg group, 26-week treatment period, not statistically significant", "result": 35.3, "unit": "%"},
      {"measurement": "ADAS-cog-6 score progression compared to placebo, decreased by", "setting": "400 mg group, 26 weeks", "result": 31.4, "unit": "%"},
      {"measurement": "progression compared to placebo of the LS mean ADAS-cog-11 score, decreased by", "setting": "400 mg group, 26 weeks", "result": 42.7, "unit": "%"}
    ]}
  ]
}
